Data published in patent US5006517A, “Treatment of Prader-Willi syndrome” (Progenics, Inc., priority 1989, dated 1991).
Where two headings read alike, the source gives them in different places.

Experiments:
[1] = normal individuals, endogenous metabolite of DHEA; cited from earlier work
[2] = in diet, diabetic, genetically obese mice; cited from earlier work
[3] = C57BL/KsJ-db/db mice; cited from earlier work
[4] = Free alpha-ET blood levels after oral suspensions in eight normal human volunteers (crossover, RIA)
Method: Each subject received all three drugs in randomized order with a one-week wash-out period between doses. Following an overnight fast, subjects received 200 mg of test drug suspended in approximately 6 oz. of apple juice. Blood samples were drawn immediately prior to drug administration and at 15 minutes, 30 minutes, 1, 2, 4, 8, 12 and 24 hours.

[5] = Interconversion, absorption and circulation of alpha-ET, beta-ET and ET-dione; conditions: for oxidation at the C-3 position to ET-dione: orally or parenterally (i.p., i.m. or i.v.)
Excerpt: This is the subject of U.S. application Ser. No. 078,610, filed July 28, 1987 and incorporated herein by reference.

[6] = genetically obese or diabetic mice; cited from earlier work
[7] = oral, severely diabetic mammals; cited from earlier work
[8] = genetically obese mice, variety of routes; cited from earlier work
[9] = not given; remark: listed apart in the source
[10] = rat, before feeding program
Method: Food consumption and body weight were measured weekly. […] Liver weight (absolute and % of body weight), total cholesterol, % of esterified cholesterol and triglycerides in the liver were also determined. In addition, epididymal fat pad weights were measured.

[11] = Blood sugar in C57BL/K db/db diabetic mice on ET-dione chow; format: in vivo, mouse (C57BL/K db/db); parameters: Blood Sugar: unit not given here
Excerpt: (§1) Eighteen C57BL/K db/db mice were divided into three groups of 5 and one group (control) of 3. This mouse strain is more diabetic and more resistant to weight gain reduction than the mouse species used in Example 1. The mice were weighed and then permitted to consume a commercially-available chow and water ad librium over a six-week study period. At the end of each week, the mice were reweighed and their blood sugar determined. The chow supplied to three of the groups had ET-dione admixed therewith at either a 0.4, 0.6 or 0 8% concentration.

[12] = Body weight in C57BL/K db/db diabetic mice on ET-dione chow; format: in vivo, mouse (C57BL/K db/db); conditions: for 6 wk gain: 6 weeks
Excerpt: as §1

[13] = A^vy /A mice, 0.4% ET-dione
Excerpt: Inhibition of the development of obesity was studied in two mutant mouse strains used for diabetes evaluation: C57BL/6, C3HeB/FeJ (A^vy /A). […] C57BL/6 mice (Jackson Laboratories, Bar Harbor, ME) display the genetic obesity syndrome markers obese (ob) and diabetes (db) A^vy /A mice (Jackson Laboratories, Bar Harbor, ME) are characterized by mild obesity and an enhanced susceptibility to certain tumors.
days during week 4 and were then returned to the 0.4% dose level.

For `C[C@]12CC[C@@H](O)C[C@H]1CC[C@@H]1[C@@H]2CC[C@]2(C)C(=O)CC[C@@H]12` [Alpha-ET, 5-beta-androstan-3-alpha-ol-17-one], the urinary excretion [1] is listed as 3-5 mg per day, the anti-obesity properties [2] is listed as “effective both in preventing and in arresting the development of obesity” and the “% W vs Control Day 28” value (0.2% in diet, day 28) is listed as -9.8%. For the same compound, the Blood Sugar [3] was “reduced blood sugar”, the “effectiveness vs DHEA in preventing the development of diabetes” value (“effectiveness vs DHEA” below) [3] was “four time more effective than DHEA” and the plasma insulin concentrations [3] was “increased plasma insulin concentrations”. The “protective effect on the pancreas (granules in islet beta cells)” value [3] was “protective effect on the pancreas”, the “levels of conjugated alpha-ET relative to free alpha-ET” value ([4]; 30 minutes post-administration) was 2-5 times and the “oxidation at the C-3 position to ET-dione” value [5] was “rapidly oxidized at the C-3 position to ET-dione”.

For `C[C@]12CC[C@H](O)C[C@H]1CC[C@@H]1[C@@H]2CC[C@]2(C)C(=O)CC[C@@H]12` [Beta-ET, 5-beta-androstan-3-beta-ol-17-one], the anti-obesity properties [2] is listed as “effective both in preventing and in arresting the development of obesity”, the Blood Sugar [3] is listed as “reduced blood sugar” and the “effectiveness vs DHEA” value [3] is listed as “four time more effective than DHEA”. The plasma insulin concentrations [3] was “increased plasma insulin concentrations”, the “protective effect on the pancreas (granules in islet beta cells)” value [3] was “protective effect on the pancreas” and the “oxidation at the C-3 position to ET-dione” value [5] was “rapidly oxidized at the C-3 position to ET-dione”.

In the case of `C[C@]12CC[C@H](O)CC1=CC[C@@H]1[C@@H]2CC[C@]2(C)C(=O)CC[C@@H]12` [DHEA, 3-beta-hydroxyandrost-5-en-17-one], the “preventive effect on the development of diabetes” value [6] is given as “marked preventive effect on the development of diabetes”, the glucose tolerance [7] is given as “improved glucose tolerance” and the hyperglycemia [7] is given as “restored hyperglycemia to normal levels”. For the same compound, the “rate of weight gain” value [8] was “decreased the rate of weight gain”.

In the case of `C[C@]12CCC(=O)C[C@H]1CC[C@@H]1[C@@H]2CC[C@]2(C)C(=O)CC[C@@H]12` [ET-dione, 5-beta-androstanedione], the “Food consumption, Av. Wks 1-4” value ([9]; 0.4% in diet, average weeks 1-4) is reported as 22.0 g/day, the “effectiveness in reducing food consumption relative to alpha-ET” value ([9]; second rat study) is reported as “equally effective as alpha-ET in reducing food consumption” and the “effectiveness on weight gain relative to alpha-ET” value (all concentrations tested) is reported as “almost twice as effective as alpha-ET”. For the same compound, the “effectiveness relative to alpha-ET (general statement)” value (rat, in vivo) was “equally or, in some cases, almost twice as effective”, the “blood levels of alpha-ET over equivalent dosages of alpha-ET” value [4] was “significantly enhanced blood levels of alpha-ET” and the “amounts of alpha-ET in blood, in words” value ([4]; 15 minutes to approximately 1 hour after administration) was “significantly higher amounts of alpha-ET”. The “free alpha-ET levels, in words, vs alpha-ET or beta-ET administration” value ([4]; four hours post-administration) was “significantly higher than from alpha-ET or beta-ET administration”, the “RIA value for alpha-ET, initial” value [10] was “approximately 40 nanograms per deciliter” and the “Blood Sugar” value ([11]; 0.4% ET-dione in chow, week 1) was 149 ± 3.9. For the same compound, the “Blood Sugar” value ([11]; 0.4% ET-dione in chow, week 2) was 156 ± 8.3, the “Blood Sugar” value ([11]; 0.4% ET-dione in chow, week 3) was 151 ± 6.3 and the “Blood Sugar” value ([11]; 0.4% ET-dione in chow, week 4) was 148 ± 5.6. The “Blood Sugar” value ([11]; 0.4% ET-dione in chow, week 5) was 148 ± 17.2, the “Blood Sugar” value ([11]; 0.4% ET-dione in chow, week 6) was 168 ± 24.5 and the “Blood Sugar” value ([11]; 0.6% ET-dione in chow, week 1) was 143 ± 9.0. For the same compound, the “Blood Sugar” value ([11]; 0.6% ET-dione in chow, week 2) was 124 ± 10.7, the “Blood Sugar” value ([11]; 0.6% ET-dione in chow, week 3) was 151 ± 11.5 and the “Blood Sugar” value ([11]; 0.6% ET-dione in chow, week 4) was 152 ± 3.7. The “Blood Sugar” value ([11]; 0.6% ET-dione in chow, week 5) was 159 ± 17, the “Blood Sugar” value ([11]; 0.6% ET-dione in chow, week 6) was 195 ± 37 and the “Blood Sugar” value ([11]; 0.8% ET-dione in chow, week 1) was 128 ± 5.0. For the same compound, the “Blood Sugar” value ([11]; 0.8% ET-dione in chow, week 2) was 126 ± 6.8, the “Blood Sugar” value ([11]; 0.8% ET-dione in chow, week 3) was 147 ± 4.2 and the “Blood Sugar” value ([11]; 0.8% ET-dione in chow, week 4) was 148 ± 3.7. For the same compound, the “Blood Sugar” value ([11]; 0.8% ET-dione in chow, week 5) was 137 ± 6.7, the “Blood Sugar” value ([11]; 0.8% ET-dione in chow, week 6) was 184 ± 31 and the “blood sugar level vs untreated mice, in words” value ([11]; ET-dione in chow, 0.4-0.8%) was “roughly half that of the untreated mice”. For the same compound, the 6 wk gain ([12]; 0.4% ET-dione in chow) was 26.1 g, the “Body Weight” value ([12]; 0.4% ET-dione in chow, start) was 19.6 ± 1.8 g and the “Body Weight” value ([12]; 0.4% ET-dione in chow, week 1) was 26.7 ± 1.7 g. The “Body Weight” value ([12]; 0.4% ET-dione in chow, week 2) was 29.8 ± 1.2 g, the “Body Weight” value ([12]; 0.4% ET-dione in chow, week 3) was 34.4 ± 0.83 g and the “Body Weight” value ([12]; 0.4% ET-dione in chow, week 4) was 36.5 ± 0.8 g. The “Body Weight” value ([12]; 0.4% ET-dione in chow, week 5) was 42.2 ± 1.0 g, the “Body Weight” value ([12]; 0.4% ET-dione in chow, week 6) was 45.7 ± 0.7 g and the 6 wk gain ([12]; 0.6% ET-dione in chow) was 24.1 g. The “Body Weight” value ([12]; 0.6% ET-dione in chow, start) was 18.1 ± 1.6 g, the “Body Weight” value ([12]; 0.6% ET-dione in chow, week 1) was 23.7 ± 1.9 g and the “Body Weight” value ([12]; 0.6% ET-dione in chow, week 2) was 27.3 ± 1.8 g. The “Body Weight” value ([12]; 0.6% ET-dione in chow, week 3) was 31.9 ± 1.9 g, the “Body Weight” value ([12]; 0.6% ET-dione in chow, week 4) was 34.7 ± 1.9 g and the “Body Weight” value ([12]; 0.6% ET-dione in chow, week 5) was 39.1 ± 1.6 g. For the same compound, the “Body Weight” value ([12]; 0.6% ET-dione in chow, week 6) was 42.2 ± 0.9 g, the 6 wk gain ([12]; 0.8% ET-dione in chow) was 21.7 g and the “Body Weight” value ([12]; 0.8% ET-dione in chow, start) was 18.1 ± 1.0 g. The “Body Weight” value ([12]; 0.8% ET-dione in chow, week 1) was 23.3 ± 0.7 g, the “Body Weight” value ([12]; 0.8% ET-dione in chow, week 2) was 26.4 ± 0.6 g and the “Body Weight” value ([12]; 0.8% ET-dione in chow, week 3) was 31.1 ± 0.76 g. For the same compound, the “Body Weight” value ([12]; 0.8% ET-dione in chow, week 4) was 33.5 ± 0.91 g, the “Body Weight” value ([12]; 0.8% ET-dione in chow, week 5) was 37.0 ± 0.9 g and the “Body Weight” value ([12]; 0.8% ET-dione in chow, week 6) was 39.8 ± 1.2 g. For the same compound, the “six-week weight gain, in words” value ([12]; ET-dione in chow, 0.4-0.8%) was “reduced the six-week weight gain”, the “effectiveness vs 0.1% alpha- and beta-ET, in words” value [13] was “comparable in effectiveness to 0.1% alpha- and beta-ET” and the “blood levels of free alpha-ET” value ([5]; animal and human pharmacokinetic data) was “increased blood levels of free alpha-ET”.

For `C[C@]12CC[C@@H](O)C[C@@H]1CC[C@@H]1[C@@H]2CC[C@]2(C)C(=O)CC[C@@H]12` [androsterone, reference compound], the “effectiveness vs DHEA” value [3] is given as “not”.

For `C[C@]12CC[C@H](O)C[C@@H]1CC[C@@H]1[C@@H]2CC[C@]2(C)C(=O)CC[C@@H]12` [epiandrosterone, reference compound], the “effectiveness vs DHEA” value [3] is listed as “not”.
